Measured values reported in patent US20240268379A1, “BIODEGRADABLE PVA/PVP HYDROGELS, USES AND PREPARATION THEREOF” (Bar-Ilan University, priority 2021, published 2024).

Experiment: Thermal stability of thymol by TGA-MS
Type: physicochemical
Conditions: 20° C./min, nitrogen
Description: Thermal gravimetric analysis (TGA) was carried out using SETSYS, by Setaram. The released products during the measurements were obtained by using Hiden HPR-20 QIC mass spectrometer (TGA) coupled with mass spectroscopy (MS). The analysis was conducted to study the stability effect of the PVA/PVP hydrogel, under heat treatment, on thymol, entrapped in the hydrogel, relative to thymol pure form. The tested samples were heated from 30° C. up to 630° C. (20° C./min heat rate) under nitrogen inert atmosphere (20 ml/min nitrogen flow rate).

thymol loss end temperature: 130 °C
thymol loss start temperature: 70 °C
SMILES: Cc1ccc(C(C)C)c(O)c1 [pure thymol, thymol]
